Experimental data taken from ChEMBL document CHEMBL2331449, “Synthesis, biological evaluation and molecular modeling of aloe-emodin derivatives as new acetylcholinesterase inhibitors” (Bioorg Med Chem, 2013).
pIC50, pKi: −log10 of the molar value.

Molecular target: T1, Acetylcholinesterase (Rattus norvegicus, UniProt P37136)
T1 sequence (P37136 whole entry): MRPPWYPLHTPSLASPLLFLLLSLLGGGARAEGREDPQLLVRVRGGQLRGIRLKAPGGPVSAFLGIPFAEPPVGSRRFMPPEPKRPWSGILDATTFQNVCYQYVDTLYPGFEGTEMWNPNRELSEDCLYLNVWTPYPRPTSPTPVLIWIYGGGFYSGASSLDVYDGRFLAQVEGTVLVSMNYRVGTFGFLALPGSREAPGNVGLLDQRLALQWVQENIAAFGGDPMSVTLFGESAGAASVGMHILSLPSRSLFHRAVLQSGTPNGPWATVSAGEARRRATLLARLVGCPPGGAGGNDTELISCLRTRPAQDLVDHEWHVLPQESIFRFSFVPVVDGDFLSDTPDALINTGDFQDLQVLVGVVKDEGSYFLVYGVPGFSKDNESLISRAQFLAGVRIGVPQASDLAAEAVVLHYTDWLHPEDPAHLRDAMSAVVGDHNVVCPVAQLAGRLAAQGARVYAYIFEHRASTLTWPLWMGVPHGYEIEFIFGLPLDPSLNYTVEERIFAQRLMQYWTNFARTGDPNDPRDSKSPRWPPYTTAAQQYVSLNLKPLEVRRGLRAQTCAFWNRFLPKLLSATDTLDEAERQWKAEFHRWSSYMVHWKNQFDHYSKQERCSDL
Experiment: Inhibition of AChE in rat cortex using acetylthiocholine iodide as substrate by double Lineweaver-Burk plot analysis

| Compound | pKi |
| --- | --- |
| O=C1c2cccc(O)c2C(=O)c2c(O)cc(C[n+]3ccccc3)cc21 | 6.55 |

Molecular target: T1, Acetylcholinesterase
Description: Inhibition of AChE in rat cortex using acetylthiocholine iodide as substrate preincubated with enzyme for 10 mins prior to substrate addition by Ellman's colorimetric method

| Compound | pIC50 |
| --- | --- |
| C[N+](C)(C)Cc1cc(O)c2c(c1)C(=O)c1cccc(O)c1C2=O | 5.42 |
| COc1cccc2c1C(=O)c1c(OC)cc(C[N+](C)(C)c3ccccc3)cc1C2=O | 4.87 |
| O=C1c2cccc(O)c2C(=O)c2c(O)cc(C[n+]3ccccc3)cc21 | 7.05 |
| COc1cccc2c1C(=O)c1c(OC)cc(C[N+](C)(C)C)cc1C2=O | 6.27 |
| C[N+](C)(Cc1cc(O)c2c(c1)C(=O)c1cccc(O)c1C2=O)c1ccccc1 | 4.60 |
